Data set [1] can be described thus: Solubility of the compound at pH 5.4. Format: physicochemical. The note with it: buffer.
Data set [2] deals with Human immunodeficiency virus 1. Briefly: Antiviral activity against HIV-1 assessed as inhibition of viral growth. The class given is functional, organism-based.
Data set [3] can be described thus: Oral bioavailability in rat. Format: ADME, organism-based. The note with it: in vivo.
Data set [4] in a line: Oral bioavailability in monkey. The class given is ADME, organism-based, Macaca mulatta. The note with it: rhesus monkey, in vivo.
The subject of data set [5] is Human immunodeficiency virus 1. Nature of the data set: Antiviral activity against HIV-1 JRFL macrophage-tropic (R5) infected in human PM1 cells assessed as inhibition of viral growth by ELISA. Format: functional, organism-based. The note with it: Human immunodeficiency virus 1, JRFL macrophage-tropic (R5). A general note: ELISA stands for enzyme-linked immunosorbent assay.

Data set [6] relates to Human immunodeficiency virus 1. Briefly: Antiviral activity against HIV-1 TLAV T-tropic (X4)/macrophage-tropic (R5) infected in human MT2 cells assessed as inhibition of viral growth by ELISA. The class given is functional, organism-based. The settings on record: Human immunodeficiency virus 1, TLAV T-tropic (X4)/macrophage-tropic (R5).
The subject of data set [7] is Human immunodeficiency virus 1. Briefly: Antiviral activity against HIV-1 SF-162 macrophage-tropic (R5) infected in human PM1 cells assessed as inhibition of viral growth by ELISA. The settings on record: Human immunodeficiency virus 1, SF-162 macrophage-tropic (R5). The class given is functional, organism-based.
Data set [8] has as its system Human immunodeficiency virus 1. Briefly: Antiviral activity against HIV-1 Bal macrophage-tropic (R5) infected in human PM1 cells assessed as inhibition of viral growth by ELISA. The note with it: Human immunodeficiency virus 1, Bal macrophage-tropic (R5). Format: functional, organism-based.
Data set [9] concerns Human immunodeficiency virus 1. Briefly: Antiviral activity against HIV-1 SF-2 T-tropic (X4) infected in human MT2 cells assessed as inhibition of viral growth by ELISA. The class given is functional, organism-based. The note with it: Human immunodeficiency virus 1, SF-2 T-tropic (X4).
Data set [10] has as its system Human immunodeficiency virus 1. Nature of the data set: Antiviral activity against HIV-1 LAI T-tropic (X4) infected in human MT2 cells assessed as inhibition of viral growth by ELISA. The class given is functional, organism-based. The note with it: Human immunodeficiency virus 1, LAI T-tropic (X4).
A short description of data set [11]: Aqueous solubility of the compound. The class given is physicochemical.
The subject of data set [12] is Human immunodeficiency virus 1. Nature of the data set: Antiviral activity against HIV-1 NL4-3 T-tropic (X4) infected in human MT2 cells assessed as inhibition of viral growth by ELISA. The class given is functional, organism-based. The settings on record: Human immunodeficiency virus 1, NL4-3 T-tropic (X4).
Data set [13] is described as follows: Oral bioavailability in dog. Format: ADME, organism-based, Canis lupus familiaris. The note with it: in vivo.
The test system of data set [14] is Human immunodeficiency virus 1. Briefly: Antiviral activity against HIV-1 JR-CSF assessed as inhibition of viral growth. The settings on record: Human immunodeficiency virus 1, JR-CSF. Format: functional, organism-based.
Data set [15] is described as follows: Basic dissociation constant, pKa of the compound.

The values below come from ChEMBL document CHEMBL5143686, “Development of Azaindole-Based Frameworks as Potential Antiviral Agents and Their Future Perspectives” (J Med Chem, 2022).

Structures are written as SMILES. ≈ marks a conversion by molar mass, not a printed value. A value given as a limit tells only on which side of the number the result lay.

As usually defined, the solubility is how much of the substance goes into solution per volume. As usually defined, the EC50 is the concentration that produces a half-maximal response. The bioavailability is the share of a dose that reaches the circulation, judged against a reference dose that is usually intravenous. In general, IC50 refers to the concentration needed to halve the response being measured. One may read the pKa as the negative logarithm of the acid dissociation constant.

As to `COc1cnc(OC)c2c1c(C(=O)C(=O)N1CCN(C(=O)c3ccccc3)CC1)cn2COP(=O)(O)O.NCCCC[C@H](N)C(=O)O`, the solubility in [1] is > 12000 µg/mL.
With `O=C(C(=O)N1CCN(C(=O)c2ccccc2)CC1)c1c[nH]c2c(-c3nccs3)ccc(F)c12`, the concentration for a half-maximal effect (EC50) in [2] is 0.057 nM.
As for `COc1ncc(OC)c2c(C(=O)C(=O)N3CCN(C(=O)c4ccccc4)CC3)c[nH]c12`, the values for the bioavailability in [3] and in data set [4] were 90% and 60%, respectively.
`COc1ccnc2[nH]cc(C(=O)C(=O)N3CCN(C(=O)c4ccccc4)C[C@@H]3C)c12`: the 50% effective concentration (EC50) was found to be 1.47 nM in data set [5]; 0.85 nM in data set [6]; 3.46 nM in [7]; 15.5 nM in data set [8]; 26.5 nM in data set [9]; 2.68 nM in data set [10]. Also, the half-maximal effective concentration (EC50) in data set [12] was 2.94 nM. Also, the bioavailability in data set [3] worked out at 19%; in [4], 24%; in data set [13] it was 77%. This molecule also showed a solubility in [11] of 170 µg/mL (≈ 418 µM).
For the molecule `Cc1csc(-c2ccc(F)c3c(C(=O)C(=O)N4CCN(C(=O)c5ccccc5)CC4)c[nH]c23)n1`, in data set [2], the concentration for a half-maximal effect (EC50) was 0.0058 nM.
Take `Cc1ncn(-c2ncc(F)c3c(C(=O)C(=O)N4CC5CN(C(=O)c6ccccc6)CC5C4)c[nH]c23)n1` (stereo not given): the IC50 in data set [14] was 0.8 nM.
For `c1cnc2cc[nH]c2c1`, the pKa in data set [15] was 6.94.
In data set [15], `c1cc2[nH]ccc2cn1` gave a pKa of 8.26.
Consider `c1cc2cc[nH]c2cn1`, for which the pKa in data set [15] was 7.93.
